Test results published in patent US11919918B2, “P2X3 andor P2X2/3 receptor antagonist, pharmaceutical composition comprising same, and use thereof” (BEIJING TIDE PHARMACEUTICAL CO., LTD., priority 2017, dated 2024).

Experiments:
[1] = target: human P2X3 receptor (Homo sapiens (Human), UniProt P56373); assay: Inhibitory activity on human P2X3 receptor (calcium 6 dye FLIPR assay, agonist α,β-MeATP); type: cell-based; details: HEK293-P2X3 stably expressing cell line, FLIPR Tetra
Experimental: (§1) Biological Assay: Determination of the Inhibitory Activity of the Compounds on Human P2X3 and P2X2/3 Receptors
(§2) Cells were seeded into a poly-D-lysine-coated 384-well cell culture plate (Corning) at a density of 11,000 cells/well/25 μL of cell inoculation medium, and were cultured in a cell incubator overnight. On the day of the test, the calcium 6 dye was diluted to a 2× concentration with a assay buffer, 25 μL of the 2× calcium 6 dye was added to the 384-well cell culture plate, which was incubated at 37° C. for 2 hours, and then placed at room temperature for further use. The test compound and the agonist, α,β-MeATP were diluted to a 7× concentration with the assay buffer, 10 μL of the 7× test compound was added to the 384-well cell culture plate, which was incubated at room temperature for 15 minutes, and 10 μL of the 7× α,β-MeATP was transferred into the 384-well cell culture plate. The data were measured and analyzed using FLIPR Tetra, and the half inhibitory concentration (IC50) of the test compound on P2X3 and P2X2/3 receptors was calculated with the GraphPad Prism four-parameter equation.
(§3) Cell lines: human embryonic kidney cells HEK293-P2X3 and HEK293-P2X2/3 stably expressing cell lines;
(§4) Complete cell culture medium: DMEM High Glucose (Life Technology), which contained 10% fetal bovine serum, 4 mM GlutaMAX, 1% penicillin-streptomycin, and 350 μg/mL G418;
(§5) Cell inoculation medium: DMEM High Glucose (Life Technology), which contained 2% fetal bovine serum, and 4 mM GlutaMAX;
(§6) Cell culture conditions: 37° C., 5% CO2;
(§7) Assay buffer: HBSS (containing calcium and magnesium ions), which contained 20 mM HEPES;
(§8) Detection equipment: FLIPR Tetra (Molecular Devices);

[2] = target: human P2X2/3 receptor (Homo sapiens (Human), UniProt P56373+Q9UBL9); assay: Inhibitory activity on human P2X2/3 receptor (calcium 6 dye FLIPR assay, agonist α,β-MeATP); type: cell-based; details: HEK293-P2X2/3 stably expressing cell line, FLIPR Tetra
Experimental: as §1, §2, §3, §4, §5, §6, §7, §8

Sequence of human P2X3 receptor (P56373 whole entry): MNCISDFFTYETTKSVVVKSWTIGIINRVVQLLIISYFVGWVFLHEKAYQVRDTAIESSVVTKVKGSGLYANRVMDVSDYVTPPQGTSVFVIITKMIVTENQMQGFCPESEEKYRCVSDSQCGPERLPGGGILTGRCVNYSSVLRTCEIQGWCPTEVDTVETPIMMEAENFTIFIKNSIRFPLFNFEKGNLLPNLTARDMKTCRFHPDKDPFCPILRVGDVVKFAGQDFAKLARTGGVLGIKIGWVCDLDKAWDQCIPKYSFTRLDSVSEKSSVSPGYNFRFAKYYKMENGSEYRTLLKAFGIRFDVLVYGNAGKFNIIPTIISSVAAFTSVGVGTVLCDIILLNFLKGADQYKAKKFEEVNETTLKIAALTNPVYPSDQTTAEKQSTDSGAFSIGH
Sequence of human P2X2/3 receptor (Q9UBL9 whole entry): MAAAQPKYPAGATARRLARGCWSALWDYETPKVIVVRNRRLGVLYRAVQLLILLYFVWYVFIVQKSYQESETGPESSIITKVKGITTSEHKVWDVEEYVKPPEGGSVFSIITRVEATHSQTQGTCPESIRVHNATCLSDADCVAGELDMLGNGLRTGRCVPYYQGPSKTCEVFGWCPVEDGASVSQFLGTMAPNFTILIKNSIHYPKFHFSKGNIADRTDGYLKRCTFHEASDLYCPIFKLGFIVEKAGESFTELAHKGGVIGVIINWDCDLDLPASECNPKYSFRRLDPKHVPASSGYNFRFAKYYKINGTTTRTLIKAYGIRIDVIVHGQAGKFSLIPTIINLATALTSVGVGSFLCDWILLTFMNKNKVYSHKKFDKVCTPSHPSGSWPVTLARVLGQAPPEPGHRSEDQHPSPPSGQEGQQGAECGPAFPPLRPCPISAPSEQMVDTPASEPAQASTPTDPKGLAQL
Sequence of human P2X2/3 receptor (P56373 whole entry): as the sequence (P56373 whole entry) above

Row | SMILES | IC50 [1] [nM] | IC50 [2] [nM]
1 | CC(C)c1cnc(Br)cc1Oc1cnc(NC(CO)CO)nc1N [Compound C111, 2-((4-amino-5-((2-bromo-5-isopropyl-pyridin-4-yl)oxy)pyrimidin-2-yl)amino) propane-1,3-diol] | 104 | 129
2 | CCSc1cc(Oc2cnc(N)nc2N)c(C(C)C)cn1 [Compound C117, 5-((2-(ethylthio)-5-isopropylpyridin-4-yl)oxy)pyrimidine-2,4-diamine] | 151 | 487
3 | CCNc1cc(Oc2cnc(N)nc2N)c(C(C)C)cn1 [Compound C118, 5-((2-(ethylamino)-5-isopropylpyridin-4-yl)oxy) pyrimidine-2,4-diamine] | 142 | 366
4 | CC(C)c1cnc(NC2CC2)cc1Oc1cnc(N)nc1N [Compound C119, 5-((2-(cyclopropylamino)-5-isopropylpyridin-4-yl)oxy)pyrimidine-2,4-diamine] | 540 | 505
5 | CCc1cc(Sc2cnc(N)nc2N)c(C(C)C)cn1 [Compound C127, 5-((2-ethyl-5-isopropylpyridin-4-yl)thio)pyrimidine-2,4-diamine] | 147 | 234
6 | CC(C)c1cnc([Si](C)(C)C)cc1Oc1cnc(N)nc1N [Compound C133, 5-((5-isopropyl-2-(trimethylsilyl)pyridin-4-yl)oxy)pyrimidine-2,4-diamine] | 1440 | 770
7 | CC#Cc1cc(Oc2cnc(N)nc2N)c(C(C)C)cn1 [Compound C134, 5-((5-isopropyl-2-(prop-1-yn-1-yl)pyridin-4-yl)oxy) pyrimidine-2,4-diamine] | 391 | 685
8 | CC(C)c1cnc(C#Cc2ccccc2)cc1Oc1cnc(N)nc1N [Compound C135, 5-((5-isopropyl-2-(phenyl-ethynyl)pyridin-4-yl)oxy) pyrimidine-2,4-diamine] | 303 | 488
9 | COc1ccc(C#Cc2cc(Oc3cnc(N)nc3N)c(C(C)C)cn2)cc1 [Compound C136, 5-((5-isopropyl-2-((4-methoxyphenyl)ethynyl)pyridin-4-yl)oxy) pyrimidine-2,4-diamine] | 270 | 416
10 | CC(C)c1cnc(C#Cc2ccc(C#N)cc2)cc1Oc1cnc(N)nc1N [Compound C137] | 503 | 567
11 | CC(C)c1cnc(C#CC2CC2)cc1Oc1cnc(N)nc1N [Compound C142, 5-((2-(cyclo-propylethynyl)-5-isopropylpyrdin-4-yl)oxy) pyrimidine-2,4-diamine] | 302 | 549
12 | COc1cc(OC)c(C#Cc2cc(Oc3cnc(N)nc3N)c(C(C)C)cn2)c(OC)c1 [Compound C145, 5-((5-isopropyl-2-((2,4,6-trimethoxyphenyl)ethynyl)pyridin-4-yl)oxy)pyrimidine-2,4-diamine] | 809 | 623
13 | CC(C)c1cnc(C#Cc2ccc(N(C)C)cc2)cc1Oc1cnc(N)nc1N [Compound C148, 5-((2-((4-(dimethylamino)phenyl)ethynyl)-5-isopropylpyridin-4-yl)oxy) pyrimidine-2,4-diamine] | 215 | 113
14 | CC(C)c1cnc(C#Cc2cccc3cccnc23)cc1Oc1cnc(N)nc1N [Compound C149, 5-((5-isopropyl-2-(quinolin-8-ylethynyl)pyridin-4-yl)oxy)pyrimidine-2,4-diamine] | 130 | 266
15 | CC(C)c1cnc(C#Cc2ccccn2)cc1Oc1cnc(N)nc1N [Compound C150, 5-((5-isopropyl-2-(pyridin-2-ylethynyl)pyridin-4-yl)oxy)pyrimidine-2,4-diamine] | 211 | 232
16 | CC(C)c1cnc(C#Cc2ccncc2)cc1Oc1cnc(N)nc1N [Compound C151, 5-((5-isopropyl-2-(pyridin-4-ylethynyl)pyridin-4-yl)oxy)pyrimidine-2,4-diamine] | 590 | 961

Row | SMILES | IC50 [1] [nM] | IC50 [2] [nM]
17 | CC(C)c1cnc(NCC(F)(F)F)cc1Oc1cnc(N)nc1N [Compound C152] | 211 | 375
18 | CC(C)c1cnc(Br)cc1Oc1cnc(N)nc1NC(CO)CO [Compound C153, 2-((2-amino-5-((2-bromo-5-isopropylpyridin-4-yl)oxy)pyrimidin-4-yl)amino) propane-1,3-diol] | 83 | 96
19 | CCN(C)CCNc1nc(N)ncc1Oc1cc(Br)ncc1C(C)C [Compound C154, 5-((2-bromo-5-isopropylpyridin-4-yl)oxy)-N^4-(2-(ethyl(methyl)amino)ethyl)pyrimidine-2,4-diamine] | 72 | 46
20 | CC(C)c1cnc(CN)cc1Oc1cnc(N)nc1N [Compound C157, 5-((2-(aminomethyl)-5-isopropylpyridin-4-yl)oxy)pyrimidine-2,4-diamine] | 736 | 978
21 | C=Cc1cnc(OC)cc1Oc1cnc(N)nc1N [Compound C162, 5-((2-methoxy-5-vinylpyridin-4-yl)oxy) pyrimidine-2,4-diamine] | 296 | 429
22 | C=C(C)c1cnc(OC)cc1Oc1cnc(N)nc1N [Compound C164, 5-((2-methoxy-5-(prop-1-en-2-yl)pyridin-4-yl)oxy) pyrimidine-2,4-diamine] | 46 | 71
23 | CCc1cnc(OC)cc1Oc1cnc(N)nc1N [Compound C165, 5-((5-ethyl-2-methoxy-pyridin-4-yl)oxy) pyrimidine-2,4-diamine] | 163 | 338
24 | CNc1nc(N)ncc1Oc1cc(Br)ncc1C(C)C [Compound C172, 5-((2-bromo-5-isopropylpyridin-4-yl)oxy)-N^4-methyl-pyrimidine-2,4-diamine] | 116 | 209
25 | CCNc1nc(N)ncc1Oc1cc(Br)ncc1C(C)C [Compound C173, 5-((2-bromo-5-isopropylpyridin-4-yl)oxy)-N^4-ethylpyrimidine-2,4-diamine] | 188 | 259
26 | CC(C)Nc1nc(N)ncc1Oc1cc(Br)ncc1C(C)C [Compound C174, 5-((2-bromo-5-isopropylpyridin-4-yl)oxy)-N^4-isopropyl-pyrimidine-2,4-diamine] | 100 | 145
27 | CC(C)c1cnc(Br)cc1Oc1cnc(N)nc1NCCO [Compound C175, 2-((2-amino-5-((2-bromo-5-isopropylpyridin-4-yl)oxy)pyrimidin-4-yl)amino)ethanol.] | 108 | 141
28 | COc1cc(Oc2cnc(N)nc2N)c(C)cn1 [Compound C176, 5-((2-methoxy-5-methylpyridin-4-yl)oxy) pyrimidine-2,4-diamine] | 611 | 984
29 | CC(C)c1cnc(Br)cc1Oc1cnc(N)nc1NC1CC1 [Compound C179, 5-((2-bromo-5-isopropylpyridin-4-yl)oxy)-N^4-cyclopropyl-pyrimidine-2,4-diamine] | 51 | 43
30 | CC(C)c1cnc(Br)cc1Oc1cnc(N)nc1NC1CCCCC1 [Compound C180, 5-((2-bromo-5-isopropylpyridin-4-yl)oxy)-N^4-cyclohexyl-pyrimidine-2,4-diamine] | 207 | 220
31 | CC(C)CNc1nc(N)ncc1Oc1cc(Br)ncc1C(C)C [Compound C181, 5-((2-bromo-5-isopropylpyridin-4-yl)oxy)-N^4-isobutyl-pyrimidine-2,4-diamine] | 84 | 78
